Values joined by “and” are separate entries in the source; they are usually repeats but may differ in a detail not shown here. Equal entries are not always repeated. “Also recorded” adds a separate entry of the source.
Assays:
membrane-bound rMpAOX [1] = target: T1, membrane-bound rMpAOX (Moniliophthora perniciosa, UniProt A8QJP8); assay: Membrane-bound rMpAOX activity with putative activators (O2 uptake, oxygraph; dose-response); format: biochemical; conditions: for Increase of membrane-bound rMpAOX oxygen uptake: 1 mM activator; for Fold-change in membrane-bound rMpAOX O2 uptake: 1 mM each, single independent measurements (Fig1a); for EC50: membrane-bound rMpAOX, 4-parameter sigmoid fit, read-out: EC50 of rMpAOX activation;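 on Fractional velocity, %: 100% is the maximal rate reached in the activator titration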
Experimental: (§1) E. coli membrane preparation was performed as described with minor modifications. […] The cells were disrupted using two passes at […] through a pre-cooled Constant cell disruption system (Constant Systems Ltd). The lysate was centrifuged for 15 min at 16,000 rcf, and the pelleted unbroken cells and large cell debris were discarded. The supernatant was centrifuged for 90 min at 200,000 rcf to collect the fragmented membranes.
(§2) Respiration rates were recorded before and after the addition of putative AOX activators, such as 5′-ADP, 5′-AMP, 5′-GDP, 5′-GMP, glyoxylate, oxaloacetate, pyruvate or succinate (1 mM each unless stated otherwise). […] Data were acquired with the Multiskan FC Microplate Photometer (ThermoFisher). […] Absorbance readings were taken periodically and a blank reactions (substrate without enzyme) were included in every assay and were used to determine and subtract the autoxidation rate (background). Proteoliposomes were assayed as described for the E. coli membrane fraction except that no KCN was included and 0.5 µL of the prep (~50 ng rMpAOX) were added into the reaction. When tested, inhibitors were preincubated with the enzyme in reaction buffer for 2–5 min before starting the reaction by the addition of substrate. The path length (i.e., the height of the reaction medium inside the well) was calculated based on the reaction volume and the well cross-section area informed by the supplier. GraphPad Prism 7.0 (GraphPad Software Inc.) was used for function fitting.

membrane-bound rMpAOX [2] = target: T1, membrane-bound rMpAOX; assay: Dose-response assay of inhibitors with membrane-bound, GMP-activated rMpAOX (NADH oxidation); format: biochemical; conditions: for Fractional velocity, % / activity at 0.025 µM / activity at 0.00025 µM / activity at 25 pM / activity at 0.25 µM / activity at 0.0025 µM: log[I]; for activity at 0.025 µM / activity at 0.00025 µM / activity at 25 pM / activity at 0.25 µM / activity at 0.0025 µM: read-out: Fractional velocity, %; for IC50: membrane-bound, GMP-activated rMpAOX, read-out: IC50
Experimental: as §1, §2

T1 sequence (A8QJP8 entry or part of it): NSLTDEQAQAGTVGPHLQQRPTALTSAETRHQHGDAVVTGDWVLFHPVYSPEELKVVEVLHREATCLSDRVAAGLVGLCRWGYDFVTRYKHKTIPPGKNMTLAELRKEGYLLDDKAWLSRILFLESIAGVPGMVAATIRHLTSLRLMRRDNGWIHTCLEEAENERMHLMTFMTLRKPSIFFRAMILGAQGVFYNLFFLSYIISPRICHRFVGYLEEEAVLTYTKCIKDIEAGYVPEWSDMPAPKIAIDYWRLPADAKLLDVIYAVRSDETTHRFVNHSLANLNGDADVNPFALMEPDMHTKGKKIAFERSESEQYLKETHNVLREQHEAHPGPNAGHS

## Nc1ncnc2c1ncn2[C@@H]1O[C@H](COP(=O)(O)OP(=O)(O)O)[C@@H](O)[C@H]1O [ADP, 5′-ADP]
membrane-bound rMpAOX [1]
  Increase of membrane-bound rMpAOX oxygen uptake: 4.5 times
  Fold-change in membrane-bound rMpAOX O2 uptake: 5 and 3.654 and 4.737
  EC50: ~6500 µM
membrane-bound rMpAOX [1]; [activator] 0.025 mM (Fig1b)
  Fractional velocity, %: 29.9% and 27.8%
membrane-bound rMpAOX [1]; [activator] 0.075 mM (Fig1b)
  Fractional velocity, %: 31.9% and 29.4%
membrane-bound rMpAOX [1]; [activator] 0.175 mM (Fig1b)
  Fractional velocity, %: 33.7% and 32.1%
membrane-bound rMpAOX [1]; [activator] 0.375 mM (Fig1b)
  Fractional velocity, %: 36.2% and 33.2%
membrane-bound rMpAOX [1]; [activator] 0.625 mM (Fig1b)
  Fractional velocity, %: 46.5% and 35.2%
membrane-bound rMpAOX [1]; [activator] 1.625 mM (Fig1b)
  Fractional velocity, %: 64.4% and 58.2%
membrane-bound rMpAOX [1]; [activator] 3.625 mM (Fig1b)
  Fractional velocity, %: 97.7% and 79.7%
membrane-bound rMpAOX [1]; [activator] 6.125 mM (Fig1b)
  Fractional velocity, %: 128.8% and 99.5%

## C/C(=C\Cc1c(O)c(Cl)c(C)c(C=O)c1O)CC/C=C(\C)[C@@H]1CC(=O)C(C)(C)O1 [AF, ascofuranone]
membrane-bound rMpAOX [2]; M -4.60206 (Fig2b), 25 µM
  Fractional velocity, %: 3.958% and 2.609% and 7.671%
membrane-bound rMpAOX [2]; M -5.60206 (Fig2b), 2.5 µM
  Fractional velocity, %: 3.068% and 1.958% and 7.541%
membrane-bound rMpAOX [2]; M -6.60206 (Fig2b), 0.25 µM
  Fractional velocity, %: 2.9011% and 3.314% and 8.873%
membrane-bound rMpAOX [2]; M -7.60206 (Fig2b), 0.025 µM
  Fractional velocity, %: 31.9402% and 19.7329%
membrane-bound rMpAOX [2]; M -7.60206 (Fig2b)
  activity at 0.025 µM: 20.3%
membrane-bound rMpAOX [2]; M -8.60206 (Fig2b), 0.0025 µM
  Fractional velocity, %: 81.2456% and 95.1772% and 65.5719%
membrane-bound rMpAOX [2]; M -9.60206 (Fig2b), 0.00025 µM
  Fractional velocity, %: 94.8574% and 87.6342%
membrane-bound rMpAOX [2]; M -9.60206 (Fig2b)
  activity at 0.00025 µM: 88%
membrane-bound rMpAOX [2]; M -10.6021 (Fig2b), 25 pM
  Fractional velocity, %: 94.1707% and 88.3377%
membrane-bound rMpAOX [2]; M -10.6021 (Fig2b)
  activity at 25 pM: 93.1%
membrane-bound rMpAOX [2]
  IC50: 8.8 nM

## Nc1ncnc2c1ncn2[C@@H]1O[C@H](COP(=O)(O)O)[C@@H](O)[C@H]1O [AMP, 5′-AMP]
membrane-bound rMpAOX [1]
  Increase of membrane-bound rMpAOX oxygen uptake: 8.1 times
  Fold-change in membrane-bound rMpAOX O2 uptake: 7.569 and 7.49 and 9.2495
  EC50: 918 µM and 910 µM
membrane-bound rMpAOX [1]; [activator] 0.025 mM (Fig1b)
  Fractional velocity, %: 22.2% and 18.4%
membrane-bound rMpAOX [1]; [activator] 0.075 mM (Fig1b)
  Fractional velocity, %: 33.8% and 27.9%
membrane-bound rMpAOX [1]; [activator] 0.175 mM (Fig1b)
  Fractional velocity, %: 53.8% and 45.3%
membrane-bound rMpAOX [1]; [activator] 0.375 mM (Fig1b)
  Fractional velocity, %: 81.6% and 66.1%
membrane-bound rMpAOX [1]; [activator] 0.625 mM (Fig1b)
  Fractional velocity, %: 102% and 87.9%
membrane-bound rMpAOX [1]; [activator] 1.125 mM (Fig1b)
  Fractional velocity, %: 134.8% and 120.3%
membrane-bound rMpAOX [1]; [activator] 2.125 mM (Fig1b)
  Fractional velocity, %: 172.4% and 157.6%
membrane-bound rMpAOX [1]; [activator] 4.125 mM (Fig1b)
  Fractional velocity, %: 201.8% and 188.2%
membrane-bound rMpAOX [1]; [activator] 6.625 mM (Fig1b)
  Fractional velocity, %: 199.8%

## CC(C)=CCc1c(O)c(Cl)c(C)c(C=O)c1O [CD, colletochlorin D]
membrane-bound rMpAOX [2]; M -5.60206 (Fig2b), 2.5 µM
  Fractional velocity, %: 6.725% and 4.7683% and 12.1201%
membrane-bound rMpAOX [2]; M -6.60206 (Fig2b), 0.25 µM
  Fractional velocity, %: 26.8171% and 38.1389%
membrane-bound rMpAOX [2]; M -6.60206 (Fig2b)
  activity at 0.25 µM: 28%
membrane-bound rMpAOX [2]; M -7.60206 (Fig2b), 0.025 µM
  Fractional velocity, %: 83.3186% and 82.5195%
membrane-bound rMpAOX [2]; M -7.60206 (Fig2b)
  activity at 0.025 µM: 81.9%
membrane-bound rMpAOX [2]; M -8.60206 (Fig2b), 0.0025 µM
  Fractional velocity, %: 98.2807% and 91.2399%
membrane-bound rMpAOX [2]; M -8.60206 (Fig2b)
  activity at 0.0025 µM: 95.8%
membrane-bound rMpAOX [2]; M -9.60206 (Fig2b), 0.00025 µM
  Fractional velocity, %: 94.0253% and 92.2465%
membrane-bound rMpAOX [2]; M -9.60206 (Fig2b)
  activity at 0.00025 µM: 98%
membrane-bound rMpAOX [2]; M -10.6021 (Fig2b), 25 pM
  Fractional velocity, %: 93.9344% and 89.9529%
membrane-bound rMpAOX [2]; M -10.6021 (Fig2b)
  activity at 25 pM: 94.5%
membrane-bound rMpAOX [2]
  IC50: 115 nM

## Nc1nc2c(ncn2[C@@H]2O[C@H](COP(=O)(O)OP(=O)(O)O)[C@@H](O)[C@H]2O)c(=O)[nH]1 [GDP, 5′-GDP]
membrane-bound rMpAOX [1]
  Increase of membrane-bound rMpAOX oxygen uptake: did not have any noticeable effect; also recorded: no effect
  Fold-change in membrane-bound rMpAOX O2 uptake: 1.198 and 1.036 and 1.118
membrane-bound rMpAOX [1]; 6.5 mM
  Increase of rMpAOX basal rate: 1.5 times

## O=CC(=O)O [GLYOX, glyoxylate]
membrane-bound rMpAOX [1]
  Fold-change in membrane-bound rMpAOX O2 uptake: 0.6271 and 0.9309 and 0.7633

## CCCCCCCCOC(=O)c1cc(O)c(O)c(O)c1 [OG, octyl gallate]
membrane-bound rMpAOX [2]; M -4.60206 (Fig2b), 25 µM
  Fractional velocity, %: 3.004% and 2.353% and 7.7435%
membrane-bound rMpAOX [2]; M -5.60206 (Fig2b), 2.5 µM
  Fractional velocity, %: 37.6641% and 53.0018% and 32.2387%
membrane-bound rMpAOX [2]; M -6.60206 (Fig2b), 0.25 µM
  Fractional velocity, %: 91.8565% and 76.0465%
membrane-bound rMpAOX [2]; M -6.60206 (Fig2b)
  activity at 0.25 µM: 92.7%
membrane-bound rMpAOX [2]; M -7.60206 (Fig2b), 0.025 µM
  Fractional velocity, %: 96.9123% and 87.3681%
membrane-bound rMpAOX [2]; M -7.60206 (Fig2b)
  activity at 0.025 µM: 99%
membrane-bound rMpAOX [2]; M -8.60206 (Fig2b), 0.0025 µM
  Fractional velocity, %: 100.043% and 88.594%
membrane-bound rMpAOX [2]; M -8.60206 (Fig2b)
  activity at 0.0025 µM: 98.8%
membrane-bound rMpAOX [2]; M -9.60206 (Fig2b), 0.00025 µM
  Fractional velocity, %: 96.5387% and 94.2199%
membrane-bound rMpAOX [2]; M -9.60206 (Fig2b)
  activity at 0.00025 µM: 98%
membrane-bound rMpAOX [2]; M -10.6021 (Fig2b), 25 pM
  Fractional velocity, %: 93.2034% and 90.1921%
membrane-bound rMpAOX [2]; M -10.6021 (Fig2b)
  activity at 25 pM: 93.9%
membrane-bound rMpAOX [2]
  IC50: 1670 nM
